Measurements reported in PubChem BioAssay (NCI).
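Tested at 5 concentrations; 48 h exposure; 96-well plates; endpoints linearly interpolated, else capped at highest concentration.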 The source made the active and inactive calls. No stated cut-off is given here; in the data, active means GI50 below about 0.43 µM; inactive means the rest.

Columns and labels:
Test in all cases: inhibition of tumour cell growth, NCI panel, 48 h
[1] = system: 786-0 renal
[2] = system: A498 renal
[3] = system: A549 NSCLC
[4] = system: ACHN renal
[5] = system: BT-549 breast
[6] = system: CAKI-1 renal
[7] = system: CCRF-CEM leukemia
[8] = system: COLO 205 colon
[9] = system: DU-145 prostate
[10] = system: EKVX NSCLC
[11] = system: HCC-2998 colon
[12] = system: HCT-116 colon
[13] = system: HCT-15 colon
[14] = system: HL-60(TB) leukemia
[15] = system: HOP-62 NSCLC
[16] = system: HOP-92 NSCLC
[17] = system: HS 578T breast
[18] = system: HT29 colon
[19] = system: IGROV1 ovarian
[20] = system: K-562 leukemia
[21] = system: KM12 colon
[22] = system: LOX IMVI melanoma
[23] = system: M14 melanoma
[24] = system: MALME-3M melanoma
[25] = system: MCF7 breast
[26] = system: MDA-MB-231 breast
[27] = system: MDA-MB-435
[28] = system: MDA-N
[29] = system: MOLT-4 leukemia
[30] = system: NCI-H226 lung
[31] = system: NCI-H23 lung
[32] = system: NCI-H460 lung
[33] = system: NCI-H522 lung
[34] = system: NCI/ADR-RES ovarian
[35] = system: OVCAR-3 ovarian
[36] = system: OVCAR-4 ovarian
[37] = system: OVCAR-5 ovarian
[38] = system: OVCAR-8 ovarian
[39] = system: PC-3 prostate
[40] = system: RPMI-8226 leukemia
[41] = system: RXF 393 renal
[42] = system: SF-268 CNS
[43] = system: SF-295 CNS
[44] = system: SF-539 CNS
[45] = system: SK-MEL-2 melanoma
[46] = system: SK-MEL-28 melanoma
[47] = system: SK-MEL-5 melanoma
[48] = system: SK-OV-3 ovarian
[49] = system: SN12C renal
[50] = system: SNB-19 CNS
[51] = system: SNB-75 CNS
[52] = system: SR leukemia
[53] = system: SW-620 colon
[54] = system: T-47D breast
[55] = system: TK-10 renal
[56] = system: U251 CNS
[57] = system: UACC-257 melanoma
[58] = system: UACC-62 melanoma
[59] = system: UO-31 renal

Measured: outcome

C#CCN(Cc1cc2c(=O)[nH]c(C)nc2cc1C)c1ccc(C(=O)N[C@@H](CCc2nn[nH]n2)C(=O)O)c(F)c1
inactive: all assays above
